This note sets out measurements from patent US10745382B2 (BRISTOL-MYERS SQUIBB COMPANY, priority 2015, dated 2020).

In one test the target is T1, PD-1/PD-L1 (Homo sapiens, UniProt Q9NZQ7).
T1 construct: made in house; host or cells: HEK293T
T1 sequence (Q9NZQ7 with tags, fused parts or gaps): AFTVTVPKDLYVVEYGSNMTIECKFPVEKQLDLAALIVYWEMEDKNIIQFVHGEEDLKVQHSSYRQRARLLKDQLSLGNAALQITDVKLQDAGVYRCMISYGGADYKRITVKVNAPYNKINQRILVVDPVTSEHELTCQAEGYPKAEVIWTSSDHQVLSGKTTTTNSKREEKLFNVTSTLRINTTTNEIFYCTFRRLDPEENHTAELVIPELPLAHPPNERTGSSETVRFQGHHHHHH
In words: PD-1/PD-L1 Homogenous Time-Resolved Fluorescence (HTRF) binding assay. Conditions: PD-L1-His 10 nM, PD-1-Ig 20 nM; numeric IC50; read-out: Range or IC50. The essentials:
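Read-out is time-resolved FRET between europium cryptate-labelled anti-Ig (1 nM final) and APC-labelled anti-His (20 nM final), both dispensed onto the binding mix. Assay buffer: dPBS containing 0.1% bovine serum albumin and 0.05% Tween-20.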
Turning to `CCN(CCCOc1cccc(-c2cccc(COc3cc(OCc4cncc(C#N)c4)c(CN(CC)C[C@H](O)CO)cc3Cl)c2C)c1Cl)C[C@H](O)CO` [Example 2075, 5-((4-chloro-5-((2′-chloro-3′-(3-(((S)-2,3-dihydroxypropyl)(ethyl)amino)propoxy)-2-methyl-[1,1′-biphenyl]-3-yl)methoxy)-2-((((S)-2,3-dihydroxypropyl)(ethyl)amino)methyl)phenoxy)methyl)nicotinonitrile], the IC50 is 5 nM. On the same count and under the same terms, under `Cc1c(COc2cc(OCc3cncc(C#N)c3)c(CN3CCCC[C@H]3C(=O)O)cc2Cl)cccc1-c1cccc(OCC(O)CO)c1Cl` (stereo partly drawn) [Example 2083, (2S)-1-(5-chloro-4-((2′-chloro-3′-(2,3-dihydroxypropoxy)-2-methyl-[1,1′-biphenyl]-3-yl)methoxy)-2-((5-cyanopyridin-3-yl)methoxy)benzyl)piperidine-2-carboxylic Acid] stands 4 nM. Still for that read-out and setting: under `CC(=O)N[C@H]1CCN(CCCOc2cccc(-c3c(Cl)ccc(COc4cc(OCc5cncc(C#N)c5)c(CNC(C)(CO)CO)cc4Cl)c3Cl)c2C)C1` [Example 2094, N-((3S)-1-(3-((2′,6′-dichloro-3′-((2-chloro-5-((5-cyanopyridin-3-yl)methoxy)-4-(((1,3-dihydroxy-2-methylpropan-2-yl)amino)methyl)phenoxy)methyl)-2-methyl-[1,1′-biphenyl]-3-yl)oxy)propyl)pyrrolidin-3-yl)acetamide] stands 6 nM.

The same test, now with this note: PD-L1-His 10 nM, PD-1-Ig 20 nM; value given as range class; read-out: Range or IC50.
Take `CCN(Cc1cc(Cl)c(OCc2cccc(-c3cccc(OCCCN4CC[C@@H](O)C4)c3Cl)c2C)cc1OCc1cncc(C#N)c1)[C@](C)(CO)C(=O)O` [Example 2072, (R)-2-((5-chloro-4-((2′-chloro-3′-(3-((R)-3-hydroxypyrrolidin-1-yl)propoxy)-2-methyl-[1,1′-biphenyl]-3-yl)methoxy)-2-((5-cyanopyridin-3-yl)methoxy)benzyl)(ethyl)amino)-3-hydroxy-2-methylpropanoic Acid]: the IC50 fell in the range of 0.21 to 10 nM. `CC(=O)NC1CCN(CCCOc2cccc(-c3cccc(COc4cc(OCc5cncc(C#N)c5)c(CN(CCC(F)(F)F)C(CO)CO)cc4Cl)c3C)c2Cl)CC1` [Example 2073, N-(1-(3-((2-chloro-3′-((2-chloro-5-((5-cyanopyridin-3-yl)methoxy)-4-(((1,3-dihydroxypropan-2-yl)(3,3,3-trifluoropropyl)amino)methyl)phenoxy)methyl)-2′-methyl-[1,1′-biphenyl]-3-yl)oxy)propyl)piperidin-4-yl)acetamide]: the IC50 lay in the range of 0.21 to 10 nM. Same read-out and setting: under `Cc1c(COc2cc(OCc3cncc(C#N)c3)c(CN(CCC(F)(F)F)C(CO)CO)cc2Cl)cccc1-c1cccc(OCCCN2CCC(O)(CO)CC2)c1Cl` [Example 2074, 5-((4-chloro-5-((2′-chloro-3′-(3-(4-hydroxy-4-(hydroxymethyl)piperidin-1-yl)propoxy)-2-methyl-[1,1′-biphenyl]-3-yl)methoxy)-2-(((1,3-dihydroxypropan-2-yl)(3,3,3-trifluoropropyl)amino)methyl)phenoxy)methyl)nicotinonitrile] stands 0.21 to 10 nM; under `Cc1c(COc2cc(OCc3cncc(C#N)c3)c(CN(C)C(C)(CO)CO)cc2Cl)cccc1-c1cccc(OCCCN2CC[C@@H](O)C2)c1Cl` [Example 2076, (R)-5-((4-chloro-5-((2′-chloro-3′-(3-(3-hydroxypyrrolidin-1-yl)propoxy)-2-methyl-[1,1′-biphenyl]-3-yl)methoxy)-2-(((1,3-dihydroxy-2-methylpropan-2-yl)(methyl)amino)methyl)phenoxy)methyl)nicotinonitrile], 0.21 to 10 nM. The same measure, in the same setting: under `Cc1c(COc2cc(OCc3cncc(C#N)c3)c(CNC3(CO)CC3)cc2Cl)cccc1-c1cccc(OCCCN2CC[C@@H](O)C2)c1Cl` [Example 2077, (R)-5-((4-chloro-5-((2′-chloro-3′-(3-(3-hydroxypyrrolidin-1-yl)propoxy)-2-methyl-[1,1′-biphenyl]-3-yl)methoxy)-2-(((1-(hydroxymethyl)cyclopropyl)amino)methyl)phenoxy)methyl)nicotinonitrile] stands 0.21 to 10 nM. Same read-out and setting: under `C[C@](CO)(NCc1cc(Cl)c(OCc2cccc(-c3cccc(OCCCN4C[C@@H](O)[C@H](O)C4)c3Cl)c2Cl)cc1OCc1cncc(C#N)c1)C(=O)O` [Example 2078, (R)-2-((5-chloro-2-((5-cyanopyridin-3-yl)methoxy)-4-((2,2′-dichloro-3′-(3-((3R,4R)-3,4-dihydroxypyrrolidin-1-yl)propoxy)-[1,1′-biphenyl]-3-yl)methoxy)benzyl)amino)-3-hydroxy-2-methylpropanoic Acid] stands 0.21 to 10 nM; under `Cc1c(COc2cc(OCc3cncc(C#N)c3)c(CNC(C)(CO)CO)cc2Cl)cccc1-c1cccc(OCC(CO)CO)c1Cl` [Example 2079, 5-((4-chloro-5-((2′-chloro-3′-(3-hydroxy-2-(hydroxymethyl)propoxy)-2-methyl-[1,1′-biphenyl]-3-yl)methoxy)-2-(((1,3-dihydroxy-2-methylpropan-2-yl)amino)methyl)phenoxy)methyl)nicotinonitrile], 0.21 to 10 nM. For the compound `Cc1c(COc2cc(OCc3cncc(C#N)c3)c(CNC(C)(CO)CO)cc2Cl)cccc1-c1cccc(OCCC(C)(C)O)c1Cl` [Example 2080, 5-((4-chloro-5-((2′-chloro-3′-(3-hydroxy-3-methylbutoxy)-2-methyl-[1,1′-biphenyl]-3-yl)methoxy)-2-(((1,3-dihydroxy-2-methylpropan-2-yl)amino)methyl)phenoxy)methyl)nicotinonitrile], the IC50 was in the range of 0.21 to 10 nM. On the same count and under the same terms, under `Cc1c(COc2cc(OCc3cncc(C#N)c3)c(CNC(C)(CO)CO)cc2Cl)cccc1-c1cccc(OCCc2ccccn2)c1Cl` [Example 2081, 5-((4-chloro-5-((2′-chloro-2-methyl-3′-(2-(pyridin-2-yl)ethoxy)-[1,1′-biphenyl]-3-yl)methoxy)-2-(((1,3-dihydroxy-2-methylpropan-2-yl)amino)methyl)phenoxy)methyl)nicotinonitrile] stands 0.21 to 10 nM. On the same count and under the same terms, under `Cc1c(COc2cc(OCc3cncc(C#N)c3)c(CNC(C)(CO)CO)cc2Cl)cccc1-c1cccc(OCC(O)CO)c1Cl` (centres unmarked) [Example 2082, 5-((4-chloro-5-((2′-chloro-3′-(2,3-dihydroxypropoxy)-2-methyl-[1,1′-biphenyl]-3-yl)methoxy)-2-(((1,3-dihydroxy-2-methylpropan-2-yl)amino)methyl)phenoxy)methyl)nicotinonitrile] stands 0.21 to 10 nM; under `Cc1c(COc2cc(OCc3cncc(C#N)c3)c(CN3CCCC[C@H]3C(=O)O)cc2Cl)cccc1-c1cccc(OCC(CO)(CO)CO)c1Cl` [Example 2084, (S)-1-(5-chloro-4-((2′-chloro-3′-(3-hydroxy-2,2-bis(hydroxymethyl)propoxy)-2-methyl-[1,1′-biphenyl]-3-yl)methoxy)-2-((5-cyanopyridin-3-yl)methoxy)benzyl)piperidine-2-carboxylic Acid], 100 to 2000 nM; under `Cc1c(COc2cc(OCc3cncc(C#N)c3)c(CNC(C)(CO)CO)cc2Cl)cccc1-c1cccc(OCC(CO)(CO)CO)c1Cl` [Example 2085, 5-((4-chloro-5-((2′-chloro-3′-(3-hydroxy-2,2-bis(hydroxymethyl)propoxy)-2-methyl-[1,1′-biphenyl]-3-yl)methoxy)-2-(((1,3-dihydroxy-2-methylpropan-2-yl)amino)methyl)phenoxy)methyl)nicotinonitrile], 0.21 to 10 nM. Same read-out and setting: under `Cc1c(COc2cc(OCc3cncc(C#N)c3)c(CNC(C)(CO)CO)cc2Cl)cccc1-c1cccc(OCC(O)CN2CC[C@@H](O)C2)c1Cl` (stereo partly drawn) [Example 2086, 5-((4-chloro-5-((2′-chloro-3′-(2-hydroxy-3-((R)-3-hydroxypyrrolidin-1-yl)propoxy)-2-methyl-[1,1′-biphenyl]-3-yl)methoxy)-2-(((1,3-dihydroxy-2-methylpropan-2-yl)amino)methyl)phenoxy)methyl)nicotinonitrile] stands 0.21 to 10 nM; under `Cc1c(COc2cc(OCc3cncc(C#N)c3)c(CNC(C)(CO)CO)cc2Cl)cccc1-c1cccc(OCCCNC(=O)C(O)CO)c1Cl` (centres unmarked) [Example 2088, N-(3-((2-chloro-3′-((2-chloro-5-((5-cyanopyridin-3-yl)methoxy)-4-(((1,3-dihydroxy-2-methylpropan-2-yl)amino)methyl)phenoxy)methyl)-2′-methyl-[1,1′-biphenyl]-3-yl)oxy)propyl)-2,3-dihydroxypropanamide], 0.21 to 10 nM; under `Cc1c(COc2cc(OCc3cncc(C#N)c3)c(CNC(C)(CO)CO)cc2Cl)cccc1-c1cccc(OCCCNC(=O)Cc2ccccn2)c1Cl` [Example 2089, N-(3-((2-chloro-3′-((2-chloro-5-((5-cyanopyridin-3-yl)methoxy)-4-(((1,3-dihydroxy-2-methylpropan-2-yl)amino)methyl)phenoxy)methyl)-2′-methyl-[1,1′-biphenyl]-3-yl)oxy)propyl)-2-(pyridin-2-yl)acetamide], 0.21 to 10 nM. Consider `Cc1c(COc2cc(OCc3cncc(C#N)c3)c(CNC(C)(CO)CO)cc2Cl)cccc1-c1cccc(CNCCN2CCOCC2)c1Cl` [Example 2092, 5-((4-chloro-5-((2′-chloro-2-methyl-3′-(((2-morpholinoethyl)amino)methyl)-[1,1′-biphenyl]-3-yl)methoxy)-2-(((1,3-dihydroxy-2-methylpropan-2-yl)amino)methyl)phenoxy)methyl)nicotinonitrile], for which the concentration for half-maximal inhibition (IC50) is 0.21 to 10 nM. Same read-out and setting: under `Cc1c(OCCCN2CC[C@@H](O)C2)cccc1-c1c(Cl)ccc(COc2cc(OCc3cncc(C#N)c3)c(CNC(C)(CO)CO)cc2Cl)c1Cl` [Example 2093, 5-((4-chloro-5-((2,6-dichloro-3′-(3-((R)-3-hydroxypyrrolidin-1-yl)propoxy)-2′-methyl-[1,1′-biphenyl]-3-yl)methoxy)-2-(((1,3-dihydroxy-2-methylpropan-2-yl)amino)methyl)phenoxy)methyl)nicotinonitrile] stands 0.21 to 10 nM.
